Results as given in publication PMC7509988 (2018).

System: E2 aptamer (DNA, aptamer) AAGGGATGCCGTTTGGGCCCAAGTTCGGCATAGTG
Test: graphene field-effect transistor
Conditions: 0.05 × PBS; pH 7.4, 5% DMSO, no interference; 4.67 nM with pH variation 6.5-8.0

C[C@]12CC[C@@H]3c4ccc(O)cc4CC[C@H]3[C@@H]1CC[C@@H]2O
KD: 4.21 nM
